Patent publication US20170050957A1, “4-AMINO-6-(HETEROCYCLIC)PICOLINATES AND 6-AMINO-2-(HETEROCYCLIC)PYRIMIDINE-4-CARBOXYLATES AND THEIR USE AS HERBICIDES” (Dow AgroSciences LLC, priority 2013, published 2017)
Read-outs that look alike come from different tables or passages of the source.

How the values were obtained:
[1] = test system: Key Broadleaf Weed and Crop Species; test: Post-emergent Test II herbicidal activity (Table 15); assay type: in vivo; settings: post-emergence, 336 h, 14 d; for pest or weed control at 35 g/ha: 35 g ai/ha; for pest or weed control at 70 g/ha: 70 g ai/ha; for pest or weed control at 140 g/ha: 140 g ai/ha; for pest or weed control at 280 g/ha: 280 g ai/ha
Procedure, shortened: (§1)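 Post-emergence spray; seedlings 7-21 d old, 1st-2nd true leaf; 187 L/ha; serial rates 1×-1/16×; solvent blank controls; subirrigated; visual % injury at 14 d.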

[2] = test system: Key Grass and Sedge Weeds as well as Grass Crops; test: Post-emergent Test II herbicidal activity (Table 16); assay type: in vivo; settings: post-emergence, 336 h, 14 d; for pest or weed control at 35 g/ha: 35 g ai/ha; for pest or weed control at 70 g/ha: 70 g ai/ha; for pest or weed control at 140 g/ha: 140 g ai/ha; for pest or weed control at 280 g/ha: 280 g ai/ha
Procedure, shortened: as §1

[3] = Abutilon theophrasti, velvetleaf (Abutilon theophrasti), read-out: Visual Growth Reduction (%) 14 Days After Application, ABUTH
[4] = Amaranthus retroflexus, redroot pigweed (Amaranthus retroflexus), read-out: Visual Growth Reduction (%) 14 Days After Application, AMARE
[5] = Brassica napus, oilseed rape, canola (Brassica napus), read-out: Visual Growth Reduction (%) 14 Days After Application, BRSNN
[6] = Chenopodium album, lambsquarters (Chenopodium album), read-out: Visual Growth Reduction (%) 14 Days After Application, CHEAL
[7] = Euphorbia heterophylla, wild poinsettia (Euphorbia heterophylla), read-out: Visual Growth Reduction (%) 14 Days After Application, EPHHL
[8] = Helianthus annuus, sunflower (Helianthus annuus), read-out: Visual Growth Reduction (%) 14 Days After Application, HELAN
[9] = Cyperus esculentus, yellow nutsedge (Cyperus esculentus), read-out: Visual Growth Reduction (%) 14 Days After Application, CYPES
[10] = Echinochloa crus-galli, barnyardgrass (Echinochloa crus-galli), read-out: Visual Growth Reduction (%) 14 Days After Application, ECHCG
[11] = Oryza sativa, rice (Oryza sativa), read-out: Visual Growth Reduction (%) 14 Days After Application, ORYSA
[12] = Setaria faberi, giant foxtail (Setaria faberi), read-out: Visual Growth Reduction (%) 14 Days After Application, SETFA
[13] = Triticum aestivum, wheat, spring (Triticum aestivum), read-out: Visual Growth Reduction (%) 14 Days After Application, TRZAS
[14] = Zea mays, maize, corn (Zea mays), read-out: Visual Growth Reduction (%) 14 Days After Application, ZEAMX

## COC(=O)c1nc(-c2ccc3occc3c2)cc(N)c1Cl [Compound 2.03]
[1]; [3]
  pest or weed control at 35 g/ha: 95 to 100%
  pest or weed control at 70 g/ha: 95 to 100%
  pest or weed control at 140 g/ha: 95 to 100%
  pest or weed control at 280 g/ha: 95 to 100%
[1]; [4]
  pest or weed control at 35 g/ha: 60 to 74%
  pest or weed control at 70 g/ha: 85 to 94%
  pest or weed control at 140 g/ha: 85 to 94%
  pest or weed control at 280 g/ha: 95 to 100%
[1]; [5]
  pest or weed control at 35 g/ha: 0 to 29%
  pest or weed control at 70 g/ha: 0 to 29%
  pest or weed control at 140 g/ha: 0 to 29%
  pest or weed control at 280 g/ha: 30 to 44%
[1]; [6]
  pest or weed control at 35 g/ha: 85 to 94%
  pest or weed control at 70 g/ha: 95 to 100%
  pest or weed control at 140 g/ha: 95 to 100%
  pest or weed control at 280 g/ha: 95 to 100%
[1]; [7]
  pest or weed control at 35 g/ha: 45 to 59%
  pest or weed control at 70 g/ha: 75 to 84%
  pest or weed control at 140 g/ha: 75 to 84%
  pest or weed control at 280 g/ha: 85 to 94%
[1]; [8]
  pest or weed control at 35 g/ha: 0 to 29%
  pest or weed control at 70 g/ha: 60 to 74%
  pest or weed control at 140 g/ha: 75 to 84%
  pest or weed control at 280 g/ha: 85 to 94%
[2]; [9]
  pest or weed control at 35 g/ha: 0 to 29%
  pest or weed control at 70 g/ha: 0 to 29%
  pest or weed control at 140 g/ha: 0 to 29%
  pest or weed control at 280 g/ha: 0 to 29%
[2]; [10]
  pest or weed control at 35 g/ha: 30 to 44%
  pest or weed control at 70 g/ha: 60 to 74%
  pest or weed control at 140 g/ha: 85 to 94%
  pest or weed control at 280 g/ha: 95 to 100%
[2]; [11]
  pest or weed control at 35 g/ha: 0 to 29%
  pest or weed control at 70 g/ha: 0 to 29%
  pest or weed control at 140 g/ha: 0 to 29%
  pest or weed control at 280 g/ha: 0 to 29%
[2]; [12]
  pest or weed control at 35 g/ha: 0 to 29%
  pest or weed control at 70 g/ha: 0 to 29%
  pest or weed control at 140 g/ha: 30 to 44%
  pest or weed control at 280 g/ha: 30 to 44%
[2]; [13]
  pest or weed control at 35 g/ha: 0 to 29%
  pest or weed control at 70 g/ha: 0 to 29%
  pest or weed control at 140 g/ha: 0 to 29%
  pest or weed control at 280 g/ha: 0 to 29%
[2]; [14]
  pest or weed control at 35 g/ha: 0 to 29%
  pest or weed control at 70 g/ha: 0 to 29%
  pest or weed control at 140 g/ha: 0 to 29%
  pest or weed control at 280 g/ha: 60 to 74%
other
  melting point: 84 to 87 °C
